“And” between values parts separate entries of the source, which are not always exact repeats. Equal entries are not always repeated.
Tests used:
Format in all cases: cell-based, human
[1] = system: Fibronectin secretion from brain glioblastoma T98G cells; experiment: Fibronectin secretion (Western blot), T98G cells; conditions: for inhibition at 20 µg/mL: 20 ug/ml
[2] = system: CD54 expression in ES2 cells; experiment: Microarray gene expression, Table 11; conditions: probe 202638_s_at
Method: Y/D is the ratio (in folds) of gene expression in cells treated with compound Y as compared with those of the no drug control (D),
YM/D is the ratio of gene expression in cells treated with compound YM (ACH-Y, Y without sugar moiety) compared with those of the no drug control (D)
Cell culture and drug-treatment.: ES2 cells were seeded in a T-25 flask with 4.5 million cells per flask for 24 hours. Cell culture was replaced with fresh medium with xanifolia-Y (Y) or DMSO no drug control (D) for 24 hours. Cells were then harvested for RNA isolation. Three experiments were done.
RNA extraction, labeling, hybridization, and data analysis. RNA was extracted from tumor cells using the Qiagen RNeasy Kit. RNA quality and quantity was checked by the Agilent BioAnalyzer and the NanoDrop® ND-1000 spectrophotometer respectively before further manipulation. […] The images were analyzed and quality control metrics recorded using Affymetrix GCOS software version 1.4. Lastly, the expression value for each gene was calculated using dChip PM-only model based or Plier algorithm.
Pairwise comparisons were made as follows: Treated vs. Control (Y vs. D), Modified Drug vs Control (YM/ACY-H vs. D) and Treated vs. Modified Drug (Y vs. YM/ACH-Y) Cel files analyzed using the Bioconductor package of R Statistical programming. […]

[3] = system: Fibronectin secretion from ES2 cells; experiment: Fibronectin secretion (Western blot), ES2 cells
[4] = ES2 cells, 10 ug/ml, listed as xanifolia-Y

C/C=C(/C)C(=O)O[C@H]1[C@H](OC(=O)/C(C)=C\C)[C@@]2(CO)C(CC1(C)C)C1=CCC3[C@@]4(C)CC[C@H](O)C(C)(C)C4CC[C@@]3(C)[C@]1(C)[C@@H](O)[C@H]2O (some centres unmarked) [ACH-Y]
inhibition at 20 µg/mL ([1]; Homo sapiens, T98G): 30%
ICAM1 intercellular adhesion molecule 1 (CD54), gene expression ratio to no drug control (D) [2]: 2.3 folds
% inhibition of Fibronectin secretion ([3]; ES2 cells, 10 ug/ml): less (or not observed)
Fibronectin secreted / FN band intensity, % of DMSO control ([3]; ES2 cells, 20 ug/ml): 53%-75%
inhibition at 20 µg/mL ([3]; Homo sapiens, ES-2, ES2 cells, 20 ug/ml): 48%

C/C=C(/C)C(=O)O[C@H]1[C@H](OC(=O)/C(C)=C\C)[C@@]2(CO)C(CC1(C)C)C1=CCC3[C@@]4(C)CC[C@H](O[C@@H]5OC(C(=O)O)[C@@H](O)C(O[C@@H]6O[C@@H](CO)C(O)C6O)C5O[C@@H]5OC(CO)[C@H](O)C(O)C5O)C(C)(C)C4CC[C@@]3(C)[C@]1(C)[C@@H](O)[C@H]2O (stereo partly drawn) [Xanifolia-Y, 3-O-[β-D-galactopyranosyl (1→2)]-α-L-arabinofuranosy (1→3)-β-D-glucuronopyranosyl-21,22-O-diangeloyl-3β, 15α, 16α, 21β, 22α, 28-hexahydroxyolean-12-ene]
% inhibition of Fibronectin secretion ([1]; 10 ug/ml, listed as Y3): 26%
inhibition at 10 µg/mL ([1]; Homo sapiens, T98G, 10 ug/ml): 27%
inhibition at 20 µg/mL ([1]; Homo sapiens, T98G): 74%
ICAM1 intercellular adhesion molecule 1 (CD54), gene expression ratio to no drug control (D) [2]: 1.6 folds
secretion of Fibronectin to medium over time ([3]; ES2 cells, 10 ug/ml, 1 to 24 hour): no or only minimally secretion of Fibronectin
reduction of Fibronectin secretion ([3]; ES2 cells, 10 ug/ml, 18 hours): 40%
reduction of Fibronectin secretion ([3]; ES2 cells, 10 ug/ml, 24 hours, listed as Y): 31% and 30-40% and 38% and 46%
reduction of Fibronectin secretion ([3]; ES2 cells, 10 ug/ml, 24 hours, listed as xanifolia-Y): 46%
reduction of FN secretion at 24 hours after removal of drug ([3]; ES2 cells, 10 ug/ml, drug removed at 4 or 8 hours): over 50%
Fibronectin secreted / FN band intensity, % of DMSO control ([3]; ES2 cells, 10 ug/ml, listed as Y): 62% and 51% and 54%
% inhibition of Fibronectin secretion ([3]; ES2 cells, 10 ug/ml, listed as Y3): 47%
% inhibition of Fibronectin secretion [3, 4]: 49%
Fibronectin secreted / FN band intensity, % of DMSO control [3, 4]: 54%
earliest time at which inhibition of Fibronectin was observed ([3]; ES2 cells, after drug-treatment): 8 h
change in Fibronectin secretion ([3]; ES2 cells, first 7 hours of treatment): not noticeable
